Reference: patent publication US20170190705A1, “Compositions and Methods for Inhibiting BMP” (THE BRIGHAM AND WOMAN'S HOSPITAL, INC., priority 2014, published 2017)
Where two headings read alike, the source gives them in different places.

Columns and labels:
Assay type in all cases: biochemical
[1] = target: GSK3α (Homo sapiens, UniProt P49840); assay: Kinome profiling GSK3α; conditions: read-out: Inhibitory activity GSK3α; for inhibition at 0.1 µM: 100 nM
Procedure: (§1) . The kinome-wide selectivity was determined following the methods previously reported by Mohedas et al., ACS Chem Biol 2013, 8, 1291-1302 and Sanvitale et al., PLoS One 2013, 8, e62721.

[2] = target: IGF1R (Homo sapiens, UniProt P08069); assay: Kinome profiling IGF1R; conditions: read-out: Inhibitory activity IGF1R; for inhibition at 0.1 µM: 100 nM
Chain of IGF1R (P08069 31-1367): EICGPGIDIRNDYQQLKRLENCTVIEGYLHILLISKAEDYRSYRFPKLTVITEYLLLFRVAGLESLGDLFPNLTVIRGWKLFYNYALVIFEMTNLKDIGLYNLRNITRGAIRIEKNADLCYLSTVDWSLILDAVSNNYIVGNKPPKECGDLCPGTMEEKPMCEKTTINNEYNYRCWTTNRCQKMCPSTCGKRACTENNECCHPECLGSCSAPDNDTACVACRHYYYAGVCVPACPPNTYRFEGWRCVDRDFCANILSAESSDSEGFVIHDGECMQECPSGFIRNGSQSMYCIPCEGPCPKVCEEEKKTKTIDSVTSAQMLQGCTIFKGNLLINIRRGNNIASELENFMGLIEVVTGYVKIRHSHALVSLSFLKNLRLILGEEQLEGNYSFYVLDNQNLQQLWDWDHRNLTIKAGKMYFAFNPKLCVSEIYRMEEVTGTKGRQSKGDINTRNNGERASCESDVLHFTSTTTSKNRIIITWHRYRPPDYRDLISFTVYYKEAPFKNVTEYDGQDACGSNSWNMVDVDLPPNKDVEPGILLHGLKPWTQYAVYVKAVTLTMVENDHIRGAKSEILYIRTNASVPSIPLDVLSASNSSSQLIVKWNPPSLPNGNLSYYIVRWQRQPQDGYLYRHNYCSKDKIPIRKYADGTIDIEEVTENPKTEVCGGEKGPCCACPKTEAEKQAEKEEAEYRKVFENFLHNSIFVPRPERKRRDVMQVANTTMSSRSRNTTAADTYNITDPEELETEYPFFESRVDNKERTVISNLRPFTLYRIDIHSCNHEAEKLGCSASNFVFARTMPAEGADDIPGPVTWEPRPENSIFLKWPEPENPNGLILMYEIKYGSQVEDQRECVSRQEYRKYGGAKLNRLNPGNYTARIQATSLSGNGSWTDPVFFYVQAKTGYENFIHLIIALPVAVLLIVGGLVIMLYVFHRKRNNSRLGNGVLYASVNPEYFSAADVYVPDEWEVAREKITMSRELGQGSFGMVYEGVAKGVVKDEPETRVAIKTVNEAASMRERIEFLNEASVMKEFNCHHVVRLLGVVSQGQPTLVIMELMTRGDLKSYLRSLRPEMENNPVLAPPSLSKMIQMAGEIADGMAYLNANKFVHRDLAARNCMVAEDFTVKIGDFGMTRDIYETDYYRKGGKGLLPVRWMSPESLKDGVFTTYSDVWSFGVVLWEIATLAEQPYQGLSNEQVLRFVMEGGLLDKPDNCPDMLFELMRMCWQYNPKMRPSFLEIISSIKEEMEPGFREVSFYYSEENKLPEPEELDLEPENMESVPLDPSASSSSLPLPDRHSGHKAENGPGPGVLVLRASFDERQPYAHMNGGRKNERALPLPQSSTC
Procedure: as §1

[3] = target: FGFR3 (Homo sapiens, UniProt P22607); assay: Kinome profiling FGFR3; conditions: read-out: Inhibitory activity FGFR3; for inhibition at 0.1 µM: 100 nM
Chain of FGFR3 (P22607 23-806): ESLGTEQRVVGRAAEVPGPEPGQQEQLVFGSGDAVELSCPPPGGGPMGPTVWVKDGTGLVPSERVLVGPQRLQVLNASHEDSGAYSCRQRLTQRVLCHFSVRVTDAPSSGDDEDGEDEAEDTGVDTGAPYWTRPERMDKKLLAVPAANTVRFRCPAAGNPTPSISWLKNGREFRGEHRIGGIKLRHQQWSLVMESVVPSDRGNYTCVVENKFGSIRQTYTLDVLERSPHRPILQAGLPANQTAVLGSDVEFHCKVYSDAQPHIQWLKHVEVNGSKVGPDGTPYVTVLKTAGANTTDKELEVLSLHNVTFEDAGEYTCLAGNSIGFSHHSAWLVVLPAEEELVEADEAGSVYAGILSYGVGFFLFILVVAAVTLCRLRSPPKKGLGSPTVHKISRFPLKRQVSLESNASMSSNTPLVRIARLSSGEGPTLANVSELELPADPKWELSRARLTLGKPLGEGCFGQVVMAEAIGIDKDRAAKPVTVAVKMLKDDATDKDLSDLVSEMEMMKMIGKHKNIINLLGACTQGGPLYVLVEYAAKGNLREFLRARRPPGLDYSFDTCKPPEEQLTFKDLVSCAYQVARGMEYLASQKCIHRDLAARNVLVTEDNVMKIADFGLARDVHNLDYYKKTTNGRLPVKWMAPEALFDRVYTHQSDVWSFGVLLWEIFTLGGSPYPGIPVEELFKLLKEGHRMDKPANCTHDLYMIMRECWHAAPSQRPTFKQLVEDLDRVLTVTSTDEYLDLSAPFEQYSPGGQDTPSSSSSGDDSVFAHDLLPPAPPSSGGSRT
Procedure: as §1

[4] = target: T1, PRKD2 (Homo sapiens, UniProt Q9BZL6); assay: Kinome profiling PRKD2; conditions: for inhibition at 0.1 µM: 100 nM
T1 sequence (Q9BZL6 1-878): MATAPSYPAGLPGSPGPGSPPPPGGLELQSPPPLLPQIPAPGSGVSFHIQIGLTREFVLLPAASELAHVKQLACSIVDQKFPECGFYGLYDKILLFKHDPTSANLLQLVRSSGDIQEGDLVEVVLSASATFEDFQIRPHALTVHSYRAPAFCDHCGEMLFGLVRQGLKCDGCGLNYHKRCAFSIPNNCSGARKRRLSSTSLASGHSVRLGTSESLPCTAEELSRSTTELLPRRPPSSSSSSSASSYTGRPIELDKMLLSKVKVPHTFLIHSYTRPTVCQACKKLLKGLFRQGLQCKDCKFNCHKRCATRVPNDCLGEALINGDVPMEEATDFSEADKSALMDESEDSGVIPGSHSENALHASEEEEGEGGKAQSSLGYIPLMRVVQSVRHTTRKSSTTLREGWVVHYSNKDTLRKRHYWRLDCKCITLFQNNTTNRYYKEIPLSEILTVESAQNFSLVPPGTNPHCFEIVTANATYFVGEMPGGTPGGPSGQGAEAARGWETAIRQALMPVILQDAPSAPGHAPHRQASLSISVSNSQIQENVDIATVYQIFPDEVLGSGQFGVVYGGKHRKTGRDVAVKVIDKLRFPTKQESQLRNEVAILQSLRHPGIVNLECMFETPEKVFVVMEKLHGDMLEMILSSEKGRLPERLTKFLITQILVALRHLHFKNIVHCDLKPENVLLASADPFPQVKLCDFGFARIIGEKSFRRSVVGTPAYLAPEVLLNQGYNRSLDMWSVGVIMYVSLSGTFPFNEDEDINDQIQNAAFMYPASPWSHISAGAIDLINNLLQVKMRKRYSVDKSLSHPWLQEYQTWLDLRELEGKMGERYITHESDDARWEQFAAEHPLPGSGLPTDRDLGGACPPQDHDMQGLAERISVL
Procedure: as §1

[5] = target: T2, TSSK1 (Homo sapiens, UniProt Q9BXA7); assay: Kinome profiling TSSK1; conditions: read-out: Inhibitory activity TSSK1; for inhibition at 0.1 µM: 100 nM
T2 sequence (Q9BXA7 1-367): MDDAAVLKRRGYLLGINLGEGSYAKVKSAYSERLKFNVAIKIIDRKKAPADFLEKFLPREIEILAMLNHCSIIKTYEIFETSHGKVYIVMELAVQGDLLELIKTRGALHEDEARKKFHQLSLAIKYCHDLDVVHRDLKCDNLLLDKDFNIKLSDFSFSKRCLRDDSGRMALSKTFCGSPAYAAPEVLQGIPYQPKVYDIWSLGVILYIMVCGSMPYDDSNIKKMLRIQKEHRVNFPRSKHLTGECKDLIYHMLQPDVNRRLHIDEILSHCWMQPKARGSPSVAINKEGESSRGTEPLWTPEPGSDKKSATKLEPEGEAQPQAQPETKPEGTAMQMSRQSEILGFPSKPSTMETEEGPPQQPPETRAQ
Procedure: as §1

[6] = target: PAK3 (Homo sapiens, UniProt O75914); assay: Kinome profiling PAK3; conditions: read-out: Inhibitory activity PAK3; for inhibition at 0.1 µM: 100 nM
Chain of PAK3 (O75914 whole entry): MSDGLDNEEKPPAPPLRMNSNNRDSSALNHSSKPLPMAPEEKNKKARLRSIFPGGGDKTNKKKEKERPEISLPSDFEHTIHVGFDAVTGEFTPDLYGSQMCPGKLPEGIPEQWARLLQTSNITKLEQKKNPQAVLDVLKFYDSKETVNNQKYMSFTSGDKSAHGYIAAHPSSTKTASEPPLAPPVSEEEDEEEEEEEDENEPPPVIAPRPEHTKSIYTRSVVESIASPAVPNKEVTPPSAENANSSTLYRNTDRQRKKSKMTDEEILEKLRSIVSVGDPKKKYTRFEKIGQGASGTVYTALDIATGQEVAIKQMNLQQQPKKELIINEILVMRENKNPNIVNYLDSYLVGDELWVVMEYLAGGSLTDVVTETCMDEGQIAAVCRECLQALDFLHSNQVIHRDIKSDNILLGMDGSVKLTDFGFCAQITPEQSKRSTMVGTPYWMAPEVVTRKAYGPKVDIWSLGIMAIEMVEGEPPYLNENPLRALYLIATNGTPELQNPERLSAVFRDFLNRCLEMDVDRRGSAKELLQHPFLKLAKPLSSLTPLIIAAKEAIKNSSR
Procedure: as §1

[7] = target: YES (Homo sapiens, UniProt P07947); assay: Kinome profiling YES; conditions: read-out: Inhibitory activity YES; for inhibition at 0.1 µM: 100 nM
Chain of YES (P07947 whole entry): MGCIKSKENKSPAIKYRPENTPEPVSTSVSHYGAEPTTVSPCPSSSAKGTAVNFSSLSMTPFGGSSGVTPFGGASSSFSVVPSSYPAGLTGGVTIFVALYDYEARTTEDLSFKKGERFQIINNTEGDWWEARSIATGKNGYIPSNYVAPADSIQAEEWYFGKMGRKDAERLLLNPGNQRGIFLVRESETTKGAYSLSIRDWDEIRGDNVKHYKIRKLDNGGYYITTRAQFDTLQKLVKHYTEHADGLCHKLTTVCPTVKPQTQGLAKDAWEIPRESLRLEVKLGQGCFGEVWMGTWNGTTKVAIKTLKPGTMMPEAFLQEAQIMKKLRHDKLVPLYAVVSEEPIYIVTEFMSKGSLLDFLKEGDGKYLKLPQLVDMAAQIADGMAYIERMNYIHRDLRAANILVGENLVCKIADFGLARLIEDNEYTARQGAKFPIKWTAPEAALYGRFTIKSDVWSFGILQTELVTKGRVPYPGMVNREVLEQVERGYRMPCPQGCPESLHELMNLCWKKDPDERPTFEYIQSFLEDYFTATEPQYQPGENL
Procedure: as §1

[8] = target: T3, NEK2 (Homo sapiens, UniProt P51955); assay: Kinome profiling NEK2; conditions: read-out: Inhibitory activity NEK2; for inhibition at 0.1 µM: 100 nM
T3 sequence (P51955 1-445): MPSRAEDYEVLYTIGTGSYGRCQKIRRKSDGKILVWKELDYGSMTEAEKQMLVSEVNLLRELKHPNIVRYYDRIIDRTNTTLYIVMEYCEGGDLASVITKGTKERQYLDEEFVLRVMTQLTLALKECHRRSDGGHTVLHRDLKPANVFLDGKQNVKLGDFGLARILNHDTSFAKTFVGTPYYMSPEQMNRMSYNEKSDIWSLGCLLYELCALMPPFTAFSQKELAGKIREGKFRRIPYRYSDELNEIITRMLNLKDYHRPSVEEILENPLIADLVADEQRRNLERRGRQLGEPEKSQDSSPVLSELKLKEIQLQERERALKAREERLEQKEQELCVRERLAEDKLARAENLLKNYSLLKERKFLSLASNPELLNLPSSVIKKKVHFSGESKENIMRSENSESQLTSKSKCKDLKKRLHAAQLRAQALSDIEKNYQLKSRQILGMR
Procedure: as §1

[9] = target: MET (Homo sapiens, UniProt P08581); assay: Kinome profiling MET; conditions: read-out: Inhibitory activity MET; for inhibition at 0.1 µM: 100 nM
Chain of MET (P08581 25-1390): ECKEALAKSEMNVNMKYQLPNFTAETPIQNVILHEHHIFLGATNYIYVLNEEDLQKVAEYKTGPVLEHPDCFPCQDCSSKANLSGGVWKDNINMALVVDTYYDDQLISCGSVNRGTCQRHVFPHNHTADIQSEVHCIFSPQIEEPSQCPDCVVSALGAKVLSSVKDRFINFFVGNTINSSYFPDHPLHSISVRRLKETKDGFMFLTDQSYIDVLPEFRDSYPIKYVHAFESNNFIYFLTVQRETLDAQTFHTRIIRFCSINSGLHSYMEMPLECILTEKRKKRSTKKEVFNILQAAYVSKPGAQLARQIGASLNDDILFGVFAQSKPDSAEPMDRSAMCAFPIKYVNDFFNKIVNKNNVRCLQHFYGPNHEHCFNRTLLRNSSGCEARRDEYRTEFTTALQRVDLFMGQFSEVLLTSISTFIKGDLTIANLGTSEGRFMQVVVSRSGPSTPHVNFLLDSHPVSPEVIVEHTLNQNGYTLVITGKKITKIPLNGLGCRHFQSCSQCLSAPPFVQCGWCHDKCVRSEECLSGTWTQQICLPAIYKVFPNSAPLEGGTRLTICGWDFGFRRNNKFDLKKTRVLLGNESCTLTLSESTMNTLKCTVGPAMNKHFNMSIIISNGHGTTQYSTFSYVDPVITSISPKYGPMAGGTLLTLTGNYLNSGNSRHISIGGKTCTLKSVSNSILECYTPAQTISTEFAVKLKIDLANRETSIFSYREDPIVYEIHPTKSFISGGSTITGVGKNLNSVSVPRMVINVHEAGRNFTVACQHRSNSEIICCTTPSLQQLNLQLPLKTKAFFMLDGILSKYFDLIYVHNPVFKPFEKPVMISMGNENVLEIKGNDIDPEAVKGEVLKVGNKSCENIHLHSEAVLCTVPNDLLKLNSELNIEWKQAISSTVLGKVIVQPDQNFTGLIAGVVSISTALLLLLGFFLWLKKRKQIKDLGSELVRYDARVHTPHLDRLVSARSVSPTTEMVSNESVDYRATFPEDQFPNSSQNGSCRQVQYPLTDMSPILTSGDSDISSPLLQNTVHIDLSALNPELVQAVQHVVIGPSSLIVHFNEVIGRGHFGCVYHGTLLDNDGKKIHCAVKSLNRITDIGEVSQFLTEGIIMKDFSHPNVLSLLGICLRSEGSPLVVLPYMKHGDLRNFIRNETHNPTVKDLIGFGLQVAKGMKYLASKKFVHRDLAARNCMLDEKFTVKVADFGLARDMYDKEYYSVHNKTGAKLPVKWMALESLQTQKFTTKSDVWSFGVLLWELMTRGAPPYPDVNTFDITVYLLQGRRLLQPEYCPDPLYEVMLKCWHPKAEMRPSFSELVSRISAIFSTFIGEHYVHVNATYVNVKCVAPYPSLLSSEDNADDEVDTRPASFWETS
Procedure: as §1

[10] = Table 4, read-out: Inhibitory Activity PRKD2
[11] = read-out: Inhibitory activity PRKD2

Chain of GSK3α (P49840 whole entry): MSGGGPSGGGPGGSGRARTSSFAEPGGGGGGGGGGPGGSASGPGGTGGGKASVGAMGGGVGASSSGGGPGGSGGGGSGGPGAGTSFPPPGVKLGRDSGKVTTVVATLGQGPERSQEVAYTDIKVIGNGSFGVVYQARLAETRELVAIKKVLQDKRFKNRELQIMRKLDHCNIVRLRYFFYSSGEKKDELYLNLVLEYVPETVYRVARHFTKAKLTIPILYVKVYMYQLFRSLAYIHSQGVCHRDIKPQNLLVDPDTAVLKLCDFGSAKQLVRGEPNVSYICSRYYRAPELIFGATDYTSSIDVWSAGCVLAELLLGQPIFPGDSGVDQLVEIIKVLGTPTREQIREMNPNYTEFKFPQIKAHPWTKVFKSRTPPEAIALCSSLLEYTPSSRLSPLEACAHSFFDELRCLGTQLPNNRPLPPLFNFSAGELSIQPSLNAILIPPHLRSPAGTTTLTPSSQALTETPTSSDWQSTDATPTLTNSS

| SMILES | inhibition at 0.1 µM [1] [%] | inhibition at 1 µM [1] [%] | inhibition at 0.1 µM [2] [%] | inhibition at 1 µM [2] [%] | inhibition at 0.1 µM [3] [%] | inhibition at 1 µM [3] [%] | inhibition at 0.1 µM [4, 10] [%] | inhibition at 0.1 µM [4, 11] [%] | inhibition at 1 µM [4, 10] [%] | inhibition at 1 µM [4, 11] [%] | inhibition at 0.1 µM [5] [%] | inhibition at 1 µM [5] [%] | inhibition at 0.1 µM [6] [%] | inhibition at 1 µM [6] [%] | inhibition at 0.1 µM [7] [%] | inhibition at 1 µM [7] [%] | inhibition at 0.1 µM [8] [%] | inhibition at 1 µM [8] [%] | inhibition at 0.1 µM [9] [%] | inhibition at 1 µM [9] [%] |
| --- | --- | --- | --- | --- | --- | --- | --- | --- | --- | --- | --- | --- | --- | --- | --- | --- | --- | --- | --- | --- |
| COc1cc(-c2cc(-c3ccc(N4CCNCC4)cc3)cnc2C)cc(OC)c1OC [Compound 10, 1-(4-(6-methyl-5-(3,4,5-trimethoxyphenyl)pyridin-3-yl)phenyl)piperazine] | 1 | 1 | 0 | 0 | 0 | 0 | 16 | 16 | 57 | 57 | 2 | 2 | 2 | 2 | 11 | 47 | 3 | 2 | -1 | 2 |
| COc1cc(-c2cc(-c3ccc(N4CCNCC4)cc3)cnc2N)cc(OC)c1OC [Compound 15, 5-(4-(piperazin-1-yl)phenyl)-3-(3,4,5-trimethoxyphenyl)pyridin-2-amine] | 1 | 0 | 2 | 4 | 2 | 6 |  | 12 |  | 54 | 1 | 5 | 1 | 1 | 41 | 82 | 4 | 2 | 7 | 21 |
